33 molecules from ChEMBL document CHEMBL2010674, “Structure based design of iminohydantoin BACE1 inhibitors: identification of an orally available, centrally active BACE1 inhibitor” (Bioorg Med Chem Lett, 2012) can be followed below.

In one data set the target is T1, Beta-secretase 2 (Homo sapiens, UniProt Q9Y5Z0).
T1 sequence (Q9Y5Z0 whole entry): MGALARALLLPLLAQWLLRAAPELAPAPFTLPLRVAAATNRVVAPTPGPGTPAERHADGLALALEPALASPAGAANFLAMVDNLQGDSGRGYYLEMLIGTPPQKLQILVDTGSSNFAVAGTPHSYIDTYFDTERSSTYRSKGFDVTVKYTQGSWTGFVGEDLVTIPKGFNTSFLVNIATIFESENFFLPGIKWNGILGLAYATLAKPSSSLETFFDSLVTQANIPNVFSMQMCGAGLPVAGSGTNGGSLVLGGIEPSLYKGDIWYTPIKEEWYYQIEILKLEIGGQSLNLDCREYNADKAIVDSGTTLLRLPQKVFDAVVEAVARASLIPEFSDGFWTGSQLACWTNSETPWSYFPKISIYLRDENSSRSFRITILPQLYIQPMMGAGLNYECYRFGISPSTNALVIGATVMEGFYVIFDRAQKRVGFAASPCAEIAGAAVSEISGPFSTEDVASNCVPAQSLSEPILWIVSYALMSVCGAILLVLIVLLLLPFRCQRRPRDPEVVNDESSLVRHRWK

Data set [1] has as its target T2, Beta-secretase 1 (Homo sapiens, UniProt P56817).
Description: Inhibition of BACE1 in HEK293 cells expressing APP swedish and london mutant assessed as decrease of amyloid-beta40 level after 4 hrs by electrochemiluminescence-based sandwich ELISA
Data set [2] deals with T2, Beta-secretase 1. This is another data set of the same source.
Data set [3] in a line: AUC (0 to 6 hrs) in rat at 10 mg/kg, po. It is filed as ADME, organism-based. Also noted: time < 6 hr, dose 10 mg/kg, route oral. Conditions: plasma.
Data set [4] is described as follows: Ratio of drug level in brain to plasma in Sprague-Dawley rat at 30 mg/kg, po. Also noted: dose 30 mg/kg, route oral. The note with it: read-out: BPR. It is filed as ADME, organism-based.
A short description of data set [5]: Ratio of drug level in brain to plasma in rat at 10 mg/kg, po. Conditions: read-out: BPR. It is filed as ADME, organism-based. Also noted: dose 10 mg/kg, route oral.
Data set [6] has as its system Rattus norvegicus. In words: Antialzheimer activity in Sprague-Dawley rat assessed as reduction in amyloid beta40 level in CSF at 30 mg/kg, po after 3 hrs relative to vehicle treated control. It is filed as functional. Also on record: scale not given: the % may be the effect or the level left.
Another data set concerns Plasma. In words: Plasma concentration in Sprague-Dawley rat at 30 mg/kg, po. It is filed as ADME, organism-based. Also on record: dose 30 mg/kg, route oral. Conditions: in vivo.
Data set [7] relates to Rattus norvegicus. In words: Antialzheimer activity in Sprague-Dawley rat assessed as reduction in amyloid beta40 level in plasma at 30 mg/kg, po after 3 hrs relative to vehicle treated control. The class given is functional. Also on record: scale not given: the % may be the effect or the level left.

T2 sequence (P56817 whole entry): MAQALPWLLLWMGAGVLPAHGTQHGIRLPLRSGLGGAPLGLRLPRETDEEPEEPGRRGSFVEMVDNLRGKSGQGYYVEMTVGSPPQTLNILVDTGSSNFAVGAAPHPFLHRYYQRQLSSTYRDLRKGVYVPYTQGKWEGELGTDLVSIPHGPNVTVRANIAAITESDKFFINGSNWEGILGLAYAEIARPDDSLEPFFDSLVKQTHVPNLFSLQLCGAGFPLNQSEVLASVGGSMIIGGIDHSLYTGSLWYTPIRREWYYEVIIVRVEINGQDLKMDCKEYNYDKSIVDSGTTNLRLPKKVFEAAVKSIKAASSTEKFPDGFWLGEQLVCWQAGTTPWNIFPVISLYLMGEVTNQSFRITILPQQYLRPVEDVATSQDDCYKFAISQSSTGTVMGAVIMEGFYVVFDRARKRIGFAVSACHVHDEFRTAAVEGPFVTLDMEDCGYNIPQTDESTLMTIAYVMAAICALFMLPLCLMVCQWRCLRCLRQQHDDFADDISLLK

In the case of `CN1C(=N)NC(c2cccc(-c3cncc(F)c3)c2)(C2CC2)C1=O` (configuration not stated), the Ki at Beta-secretase 2 is 139 nM; on Beta-secretase 1 [2], 160 nM. On Beta-secretase 1 [1], this molecule yielded an IC50 of 800 nM. At Beta-secretase 1 [1], `CN1C(=N)NC(c2cccc(-c3cccc(Cl)c3)c2)(C2CCCC2)C1=O` (configuration not stated) displayed an IC50 of 6900 nM. Besides, at Beta-secretase 1 [2], the Ki came out at 470 nM.

As to `CN1C(=N)NC(c2cncnc2)(c2cccc(-c3cccc(Cl)c3)c2)C1=O` (configuration not stated), the IC50 against Beta-secretase 1 [1] is 21000 nM. For the same molecule, the affinity at Beta-secretase 1 [2], expressed as Ki, was 830 nM.

On to `Cc1cccc(C2(c3ccccc3)N=C(N)N(C)C2=O)c1` (racemic), for which the affinity at Beta-secretase 1 [2] corresponds to a Ki of 550 nM.

At Beta-secretase 1 [2], `CN1C(=N)NC(c2ccccc2)(c2cccc(F)c2)C1=O` (racemic) displayed a Ki of 720 nM. `CN1C(=N)NC(c2ccccc2)(c2cccc(-c3cncc(F)c3)c2)C1=O` (racemic) came in with a Ki on Beta-secretase 1 [2] of 290 nM.

`COc1cccc(-c2cccc(C3(C4CC4)NC(=N)N(C)C3=O)c2)c1` (configuration not stated) gave an inhibition constant Ki at Beta-secretase 2 of 7.8 nM. Take `CN1C(=N)N[C@@](c2cccc(-c3cncc(Cl)c3)c2)(C2CC2)C1=O`: the AUC(0-t) at 6 h in data set [3] amounted to 3.1 µM·h. As for `CN1C(=N)NC(c2cccc(-c3cccc(Cl)c3)c2)(C2CCC2)C1=O` (configuration not stated), on Beta-secretase 1 [1], the IC50 is 2800 nM. Besides, on Beta-secretase 1 [2], the inhibitory constant (Ki) was 110 nM. For the molecule `CN1C(=N)NC(c2cccc(-c3cccc(C#N)c3)c2)(C2CC2)C1=O` (configuration not stated), the Ki on Beta-secretase 2 worked out at 30 nM; on Beta-secretase 1 [2], 130 nM. The molecule further came in with an IC50 at Beta-secretase 1 [1] of 940 nM. The corresponding values for `Cc1cncc(-c2cccc(C3(C4CC4)NC(=N)N(C)C3=O)c2)c1` (configuration not stated) are 68 nM, 250 nM and 640 nM.

`CN1C(=O)C(c2ccccc2)(c2cccc(Cl)c2)N=C1N` (racemic) gave an inhibition constant (Ki) at Beta-secretase 1 [2] of 300 nM.

Regarding `CN1C(=N)NC(c2cccc(-c3cc(Cl)cc(Cl)c3)c2)(C2CC2)C1=O` (configuration not stated), at Beta-secretase 1 [1], half-maximal inhibition (IC50) required 2400 nM. The molecule further showed a Ki on Beta-secretase 1 [2] of 30 nM. The corresponding values for `CN1C(=N)NC(c2cccnc2)(c2cccc(-c3cccc(Cl)c3)c2)C1=O` (configuration not stated) are 4400 nM and 170 nM. `CN1C(=O)C(c2ccccc2)(c2cccc(-c3ccncc3)c2)N=C1N` (racemic) returned a Ki on Beta-secretase 1 [2] of 3800 nM. Still for that read-out and setting: then `CN1C(=N)NC(c2ccccc2)(c2cccc(-c3cncc(Cl)c3)c2)C1=O` (racemic), with 90 nM. `CN1C(=N)NC(c2cccc(-c3cccc(Cl)c3)c2)(c2ccccn2)C1=O` (configuration not stated) yielded a half-maximal inhibitory concentration (IC50) against Beta-secretase 1 [1] of 5900 nM. This molecule also registered a Ki on Beta-secretase 1 [2] of 860 nM. Consider `CC#Cc1cncc(-c2cccc([C@@]3(C4CC4)NC(=N)N(C)C3=O)c2)c1`, for which the figures for the Kp in [4] and in data set [5] were 0.2 and 0.3, respectively. Further, in [3], the exposure AUC(0-t) at 6 h was found to be 17.9 µM·h. Also, the values for the Activity with Rattus norvegicus [6] and in the data set with Rattus norvegicus [7] were 54% and 85%, respectively. In addition, the concentration in the data set on Plasma was determined as 4.2 µM. The molecule further had an IC50 against Beta-secretase 1 [1] of 82 nM. At Beta-secretase 1 [2], the affinity, expressed as Ki, was 5.4 nM.

Molecule `CN1C(=N)NC(c2ccccc2)(c2cccc(-c3ccccc3)c2)C1=O` (racemic) had a Ki on Beta-secretase 1 [2] of 3300 nM. At Beta-secretase 1 [1], `CCC1(c2cccc(-c3cccc(Cl)c3)c2)NC(=N)N(C)C1=O` (configuration not stated) showed an IC50 of 5300 nM. Also, affinity at Beta-secretase 1 [2] was put at a Ki of 450 nM. The like results for `CC(C)C1(c2cccc(-c3cccc(Cl)c3)c2)NC(=N)N(C)C1=O` (configuration not stated) were, in that order, 4600 nM and 320 nM. Regarding `CCOc1cccc(-c2cccc(C3(c4ccccc4)N=C(N)N(C)C3=O)c2)c1` (racemic), the Ki at Beta-secretase 1 [2] came to 460 nM. The same measure, in the same setting: then `CN1C(=N)NC(c2ccncc2)(c2cccc(-c3cccc(Cl)c3)c2)C1=O` (configuration not stated), with greater than 10000 nM. Still for that read-out and setting: then `CN1C(=O)C(c2ccccc2)(c2cccc(C#N)c2)N=C1N` (racemic), with 370 nM; and `COc1ccc(-c2cccc(C3(c4ccccc4)NC(=N)N(C)C3=O)c2)cc1` (racemic), with 3800 nM.

As to `CN1C(=N)NC(c2cccc(-c3cccnc3)c2)(C2CC2)C1=O` (configuration not stated), the Ki was 360 nM at Beta-secretase 2 and 270 nM at Beta-secretase 1 [2]. The molecule also registered an IC50 at Beta-secretase 1 [1] of 880 nM. Turning to `Cc1cncc(-c2cccc(C3(c4ccccc4)NC(=N)N(C)C3=O)c2)c1` (racemic), at Beta-secretase 1 [2], the affinity corresponds to a Ki of 430 nM. For the molecule `CN1C(=N)NC(c2ccccc2)(c2cccc(-c3cnccn3)c2)C1=O` (racemic), affinity on Beta-secretase 1 [2] was put at a Ki of 310 nM. In turn, `CN1C(=N)NC(c2ccccc2)(c2cccc(-c3cncc(C#N)c3)c2)C1=O` (racemic) returned a Ki at Beta-secretase 1 [2] of 470 nM. Turning to `CN1C(=N)NC(c2cccc(-c3cncc(C#N)c3)c2)(C2CC2)C1=O` (configuration not stated), the Ki at Beta-secretase 2 was determined as 170 nM; at Beta-secretase 1 [2], 270 nM. On Beta-secretase 1 [1], this molecule yielded an IC50 of 610 nM.

Molecule `CN1C(=N)NC(C)(c2cccc(-c3cccc(Cl)c3)c2)C1=O` (configuration not stated) displayed an IC50 against Beta-secretase 1 [1] of 4800 nM. Moreover, affinity on Beta-secretase 1 [2] was put at a Ki of 720 nM. The like results for `CN1C(=N)NC(c2cccc(-c3cccc(Cl)c3)c2)(C2CC2)C1=O` (configuration not stated) were, in that order, 1900 nM and 47 nM.

For `COc1cncc(-c2cccc(C3(C4CC4)NC(=N)N(C)C3=O)c2)c1` (configuration not stated), the inhibition constant (Ki) at Beta-secretase 2 is 11 nM; at Beta-secretase 1 [2], 100 nM. Besides, the IC50 on Beta-secretase 1 [1] stood at 390 nM.

As usually defined, the Ki is the dissociation constant of the complex between target and ligand, obtained from inhibition or displacement. A word on the IC50: it is the midpoint of a concentration-inhibition curve. For orientation: AUC(0-t) means exposure summed from dosing to a finite time, without extrapolation to infinity.
